Experimental data: patent US20210000953A1, “USE OF IMMUNE CHECKPOINT INHIBITORS IN CENTRAL NERVOUS SYSTEMS NEOPLASMS” (Bristol-Myers Squibb Company, priority 2014, published 2021)
Entries after “also recorded” stand apart in the source; their conditions may differ.

Legend:
[1] = Phase 1 study of nivolumab; cited from earlier work
[2] = tested on: recurrent GBM; test: Study CA209143 safety lead-in cohorts (Cohort 1, 1b): investigator-assessed tumor response per RANO (brain MRI) and overall survival; format: in vivo, human
Protocol: A randomized, open-label, multicenter, phase 3 study of nivolumab monotherapy versus bevacizumab and a safety study of nivolumab and nivolumab in combination with ipilimumab is conducted in adult (>18 years) subjects with a first recurrence of GBM after treatment with radiotherapy and temozolomide. Since the use of nivolumab and ipilimumab has not previously been studied in subjects with GBM, a safety lead-in (Cohort 1) consisting of approximately 10 subjects in each of two treatment arms are enrolled and randomized to treatment with either Arm N (nivolumab monotherapy) or Arm N+I (nivolumab combined with ipilimumab). Tolerability and safety of a treatment arm is determined after all subjects in the arm completed four doses or discontinued dosing prior to completing four doses. A safety evaluation of Cohort 1 is conducted for each arm based on criteria described herein.
In order to better characterize preliminary safety and tolerability for the combination therapy, an additional, non-randomized safety cohort (Cohort 1b) to evaluate an alternate dosing regimen is initiated for the combination therapy (nivolumab 3 mg/kg+ipilimumab 1 mg/kg every 3 weeks for 4 cycles followed by nivolumab 3 mg/kg thereafter). Evaluation of the efficacy of nivolumab+ipilimumab combination therapy will be evaluated separately. Information from subjects treated with combination therapy in Cohort 1 and Cohort 1b will provide a basis for dose selection for future studies in subjects with GBM.
All subjects received efficacy assessments with brain MRI with contrast on Day 1 Week 7, Day 1 Week 13, and then one time every 8 weeks (±1 week). MRIs occurred at ±7 days per scheduled visits. Investigators will obtain more frequent follow-up MRI scans as medically indicated.
The primary efficacy measure of the study is overall survival (OS). OS is defined as the time between the date of randomization and the date of death due to any cause. OS is followed continuously while subjects are on study drug and every 3 months via in-person or phone contact during the survival follow-up phase of the study.
Investigator-assessed tumor response is based upon published RANO criteria. Tumor assessments are performed as shown above in the imaging assessment for the study. Radiologic response was assessed by comparing the pretreatment baseline and on-treatment MRI scans. Radiologic progression was determined by using the smallest tumor measurement at either the pretreatment baseline or after initiation of study medication.
A complete response required: complete disappearance of all enhancing measurable and nonmeasurable disease sustained for at least 4 weeks; no new lesions; stable or improved nonenhancing (T2/FLAIR) lesions; patients must be off corticosteroids (or on physiologic replacement doses only); and stable or improved clinically. Patients with nonmeasurable disease only cannot have a complete response; the best response possible is stable disease. […]

[3] = tested on: Tregs; test: Cytokine release from sorted Tregs (CD4+CD25+CD127−) ± stimulation; format: cell-based, human; conditions: GBM patients on nivolumab treatment
Protocol: (§1) Analyses were performed on peripheral blood drawn from patients at predetermined time points (FIG. 13) and tumor tissue samples were obtained if resection was performed at the time of progression or suspected progression. Baseline and on-treatment samples were obtained from patients (n=20) randomized 1:1 to receive either nivolumab 3 mg/kg every 2 weeks (Q2W) or nivolumab 1 mg/kg+ipilimumab 3 mg/kg every 3 weeks followed by nivolumab 3 mg/kg Q2W (FIG. 13). Phenotypic, maturation, and proliferation analyses were performed using flow cytometry with population-specific antibody panels (Table 11). Cytokine release analyses were carried out on supernatants from sorted Tregs (CD4+CD25+CD127−)±stimulation (PMA+ionomycin). The anti-tumor-associated antigen (TAA) activity of peripheral blood mononuclear cells (PBMCs) and tumor-infiltrating lymphocytes (TILs) was evaluated. Cells were stimulated with interleukin (IL)-2, IL-15, and TAA peptides; after 9 days of culture with IL-2 and IL-15, cells were restimulated with IL-2, IL-15, and TAA peptides. Production of interferon (IFN)γ/granzyme B was assayed using a dual-color FluoroSpot assay.

[4] = in vivo; cited from earlier work
[5] = tested on: TILs and PBMCs; test: Anti-tumor-associated antigen (TAA) activity, dual-color IFNγ/granzyme B FluoroSpot assay; format: cell-based, human; conditions: cells isolated from patients treated with nivolumab monotherapy (FIG. 17)
Protocol: as §1

[6] = exploratory analysis, Cohort 1, recurrent GBM, N = 10 per arm, same regimens
[7] = investigator-assessed per RANO, Cohort 1, recurrent GBM, N = 10 per arm, nivolumab 3 mg/kg Q2W or nivolumab 1 mg/kg + ipilimumab 3 mg/kg Q3W x4 then nivolumab 3 mg/kg Q2W

nivolumab
Subjects with apparent progression of disease before objective response and/or stable disease [1]: approximately 10% | Patients who experienced stable disease or better ([2]; Cohort 1 nivolumab monotherapy 3 mg/kg, RANO): 6/10 | Time on treatment of the one patient still receiving nivolumab at cutoff ([2]; Cohort 1 nivolumab monotherapy arm, cutoff Sep. 9, 2015): 17.5 months | Brain MRI following three treatments ([2]; case: Cohort 1 Arm N, nivolumab 3 mg/kg monotherapy): disease progression as per RANO | Response according to RANO criteria ([2]; case: MGMT methylated, EGFRvIII positive GBM, nivolumab 3 mg/kg): partial response | Brain MRI four weeks after resection ([2]; case: nivolumab 3 mg/kg): did not show tumor growth | Brain MRI on Aug. 28, 2014 ([2]; case: nivolumab 3 mg/kg delayed, dexamethasone 4 mg BID): improvement with resolution of rim enhancement | Death, time after randomization ([2]; case: nivolumab 3 mg/kg, treated 227 days): 397 days | Karnofsky performance status at all subsequent visits ([2]; case: nivolumab 3 mg/kg, 90 at baseline): 90 | Time to distant disease progression after resuming nivolumab following surgery ([2]; case: nivolumab 3 mg/kg, hippocampus and right hypothalamus, proven on autopsy): 4 months | Overall survival: Median, months (95% CI) ([2]; exploratory analysis, Cohort 1, recurrent GBM, N = 10 per arm, nivolumab 3 mg/kg Q2W or nivolumab 1 mg/kg + ipilimumab 3 mg/kg Q3W x4 then nivolumab 3 mg/kg Q2W, NE: not estimated): 10.5 (4.1-NE)^ months | Overall survival: 6-month rate (95% CI) [2, 6]: 70.0% (32.9-89.2) | Overall survival: 9-month rate (95% CI) [2, 6]: 60.0% (25.3-82.7) | Overall survival: 12-month rate (95% CI) [2, 6]: 40.0% (12.3-67.0) | Overall survival: Range, months [2, 6]: 4.1-17.6 months | Best overall response: Complete Response [2, 7]: 0 n (%) | Best overall response: Partial Response [2, 7]: 1 (10) n (%) | Best overall response: Progressive Disease [2, 7]: 3 (30) n (%) | Best overall response: Stable Disease [2, 7]: 5 (50) n (%) | Best overall response: Unable to Determine [2, 7]: 1 (10) n (%) | Production of IFNγ by Tregs [3]: increase production of IFNγ | Terminal half life [4]: up to 25 days | Anti-TAA activity of TILs and PBMCs upon restimulation [5]: increased anti-TAA activity; also recorded: functional responses to TAAs in both TILs and PBMCs
